Source: patent publication US11974983B2 (Duke University, priority 2018, dated 2024)
Like-named read-outs stand apart in the source and are kept apart here.

Assays:
[1] = cited from earlier work
[2] = test system: MCF7 cells stably expressing DOX-inducible ER Y537S; experiment: Dose response cell counting in MCF7 cells with DOX-inducible HA-tagged ER Y537S; format: cell-based; conditions: for IC50: Homo sapiens, MCF7, 120 h, allele Y537S, cell count day 5, full medium
Experimental: (§1) MCF7 estrogen receptor alpha positive (ER^+) breast cancer cells were engineered to stably express doxycycline (DOX)-inducible hemagglutinin (HA)-tagged full length ER with ligand binding domain mutations Y537S and D538G. The introduction and expression of the mutants were confirmed by Sanger sequencing, RNA-sequencing, and western blot.
(§2) The dose response studies were performed in full medium conditions. Cells were treated with DOX for the induction of HA-tagged mutated ER or with vehicle as control, and plated in triplicate. Subsequently, on day 5, cell counting was performed using the Celigo instrument with Hoechst dye staining to detect nucleated live cells and propidium iodide to quantify dead cells.
(§3) IC50 values were calculated using PRISM.

[3] = in blood, cited from earlier work
[4] = test system: wild-type ERα and ERα LBD mutants Y537S, Y537N, Y537C, D538G; experiment: ERE-luciferase reporter assay in Caov2 and SKBR3 cells (statements on all receptors); format: cell-based
Experimental: ExSite mutagenesis was performed using the corresponding primers as summarized in Table 1 below on a pENTR2B ERα WT construct using Pfu ultra taq polymerase. The primers were PNK phosphorylated. Following PCR amplification, the products were digested with DpnI at 37° C. for 1 hr, followed by overnight ligation at 16° C. Ligated products were transformed into DH5α bacterial cells and grown on kanamycin resistant plates. The pENTR clones were verified by sequencing and then swapped into the pcDNA-DEST vector using the Gateway system (Invitrogen) for expression analysis.
Caov2 ovarian carcinoma cells were grown in RPMI-1640 media (Gibco) supplemented with 8% Fetal Bovine Serum (FBS), Sodium Pyruvate (NaPyr) and non-essential amino acids (NEAA) and passaged every 2-3 days. SKBR3 breast adenocarcinoma cells were grown in DMEM media (Gibco) supplemented with 8% Fetal Bovine Serum (FBS), Sodium Pyruvate (NaPyr) and non-essential amino acids (NEAA) and passaged every 2-3 days. […]
Caov2 cells were co-transfected with the 7X-TK-ERE-TATA luciferase reporter gene (Nagel et al., Endocrinology 142(11): 4721-4728 (2001)) and expression constructs for either wild-type or mutant receptors using Fugene transfection reagent (Promega). […] Following 24 hours of treatment, cells were lysed and the luciferase and β-gal assays were performed as described previously (Norris et al., J Biol Chem 270(39): 22777-22782 (1995)) and the plates were read on the Fusion α-FP HT plate reader (PerkinElmer Life Sciences).
See Jeselsohn et al., Nature Reviews Clinical Oncology 12(10): 573-583 (2015); Jeselsohn et al., Clinical Cancer Research 20(7): 1757-1767 (2014); Robinson et al., Nature Genetics 45(12): 1446-1451(2013); Thomas and Gustafsson, Trends in Endocrinology and Metabolism 26(9): 467-476 (2015); and Toy et al., Nature Genetics 45(12): 1439-1445 (2013). The activity of these mutants was evaluated in a reconstituted estrogen response element (ERE)-luciferase reporter assay in Caov2 ovarian carcinoma cells and SKBR3 breast adenocarcinoma cells. […]

[5] = test system: MCF7 cells stably expressing DOX-inducible ER D538G; experiment: Dose response cell counting in MCF7 cells with DOX-inducible HA-tagged ER D538G; format: cell-based; conditions: for IC50: Homo sapiens, MCF7, 120 h, allele D538G, cell count day 5, full medium
Experimental: as §1, §2, §3

ERα wild-type LBD = target: T1, ERα wild-type LBD (Homo sapiens, UniProt P03372, C381S/C417S/C530S/L536S); experiment: X-ray crystal structure of ligand-bound ERα wild-type LBD (L536S)
T1 construct: 6x-His-TEV (N, cleaved yes); made in house; host or cells: E. coli BL21(DE3)
T1 sequence (P03372 311-547 C381S/C417S/C530S/L536S limits assumed): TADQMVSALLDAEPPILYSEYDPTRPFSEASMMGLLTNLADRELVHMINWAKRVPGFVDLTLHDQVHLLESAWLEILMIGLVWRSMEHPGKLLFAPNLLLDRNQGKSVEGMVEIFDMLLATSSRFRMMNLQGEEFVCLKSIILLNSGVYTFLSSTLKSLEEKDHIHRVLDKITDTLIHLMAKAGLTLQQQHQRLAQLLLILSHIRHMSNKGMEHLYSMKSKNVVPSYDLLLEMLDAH
Experimental: 6x-His-TEV-Estrogen receptor alpha ligand binding domain containing C381S, C417S, C530S with L536S or Y537S mutations were expressed in E. coli BL21(DE3). The L536S mutant stabilizes the wild-type antagonist conformation and Y537S is an activating somatic mutation that has been identified in patients with acquired hormone resistance. Both proteins were purified using Ni-NTA resin, the 6x-His tag was cleaved using tev protease, removed using Ni-NTA resin, and a final purification was performed by passing the protein over a size exclusion column. The main peak was concentrated to 10 mg/mL and flash frozen.
Hanging drop vapor diffusion was used to crystallize the complexes. The L536S-Laso (lasofoxifene-bound ERα wild-type LBD) complex formed clear hexagonal crystals in 25% PEG 8,000, 200 mM MgCl2, HEPES pH 7.5 after two weeks at room temperature. The Y537S-Laso (lasofoxifene-bound ERα Y537S mutant LBD) complex formed rectangular crystals in 20% PEG 3.35K, 200 mM MgCl2, HEPES pH 6.5 after one week at room temperature.
Crystals were cryo-protected in 25% glycerol in mother liquor and flash frozen in liquid nitrogen. All x-ray crystallographic data sets were collected at the Advanced Photon Source. The L536S-Laso complex diffracted to 1.8 Å and the Y537S-Laso complex diffracted to 2.1 Å by cc^1/2 over 50%. Phaser was used for molecular replacement with 5UFX as the model. […]

[6] = DOX-induced mutant ER, read-out: IC50 DOX (ESR mutation)
[7] = no DOX, read-out: IC50 No DOX (wt only)

In the case of Oc1ccc2c(c1)CC[C@H](c1ccccc1)[C@@H]2c1ccc(OCCN2CCCC2)cc1 [Lasofoxifene, lasofoxifene], the “risk of breast cancer” value ([1]; PEARL trial, post-menopausal women with osteoporosis) is listed as “reduced the risk of breast cancer”, the risk of osteoporosis ([1]; double-blind, placebo-controlled, randomized PEARL trial) is listed as “reduce the risk of osteoporosis” and the IC50 [2, 6] is listed as 4.1 nM. For the same compound, the IC50 [2, 7] was 0.36 nM, the “anti-estrogenic activity, cell killing with increasing dose titration” value ([2]; Y537S stable transfectants, 10^−12 M to 10^−6 M) was “kill the stably transfected cells” and the “Reported Cmax” value ([3]; dose 0.5 mg) was 3.6 ng/mL. The “Reported Cmax” value ([3]; dose 1 mg) was 6.43 ng/mL, the “inhibition of the transcriptional activity of the ERα mutants” value ([4]; all tested ERα LBD mutants, in presence of 1 nM 17-β estradiol, Caov2 and SKBR3 cells) was “effectively inhibited the transcriptional activity of all tested ERα LBD mutants in a dose-response manner” and the “response of mutants to inhibitory action compared with WT receptor” value ([4]; each mutant versus WT receptor) was “reduced response”. For the same compound, the “anti-estrogenic activity, cell killing with increasing dose titration” value ([5]; D538G stable transfectants, 10^−12 M to 10^−6 M) was “kill the stably transfected cells”, the IC50 [5, 6] was 1 nM and the IC50 [5, 7] was 0.1 nM. For the same compound, the “loop between helix 11 and helix 12 in the crystal structure” value (ERα wild-type LBD) was “does not disrupt the loop between helix 11 and helix 12”.
